How the values were obtained:
Format in all cases: biochemical
[1] = target: JAK1 (Homo sapiens (Human), UniProt P23458); test: In vitro JAK kinase assay (TR-FRET), JAK1; details: catalytic domain aa 850-1154, GST-fusion; ATP 3 μM; peptide 60 nM; 30 minutes at room temperature
Protocol: (§1) Compounds were screened for their ability to inhibit JAK1, JAK2 and JAK3 using the assays as indicated below. […] The enzymatic activity was assayed using as substrate a biotinylated peptide, poly (GT)-Biotin (CisBio). […] The degree of phosphorylation was detected by TR-FRET (time-resolved fluorescence energy transfer). […] The enzymatic reactions took place for 30 minutes at room temperature. […] Incubate for 3 h and read on Victor 2V spectrofluorometer (Perkin Elmer) set to read fluorescence resonance energy transfer.

[2] = target: JAK3 (Homo sapiens (Human), UniProt P52333); test: In vitro JAK kinase assay (TR-FRET), JAK3; details: catalytic domain aa 795-1124, GST-fusion; ATP 0.6 μM; peptide 140 nM; 30 minutes at room temperature
Protocol: as §1

[3] = target: JAK2 (Homo sapiens (Human), UniProt O60674); test: In vitro JAK kinase assay (TR-FRET), JAK2; details: catalytic domain aa 826-1132, GST-fusion; ATP 0.2 μM; peptide 20 nM; 30 minutes at room temperature
Protocol: as §1

Chain of JAK3 (P52333 795-1124): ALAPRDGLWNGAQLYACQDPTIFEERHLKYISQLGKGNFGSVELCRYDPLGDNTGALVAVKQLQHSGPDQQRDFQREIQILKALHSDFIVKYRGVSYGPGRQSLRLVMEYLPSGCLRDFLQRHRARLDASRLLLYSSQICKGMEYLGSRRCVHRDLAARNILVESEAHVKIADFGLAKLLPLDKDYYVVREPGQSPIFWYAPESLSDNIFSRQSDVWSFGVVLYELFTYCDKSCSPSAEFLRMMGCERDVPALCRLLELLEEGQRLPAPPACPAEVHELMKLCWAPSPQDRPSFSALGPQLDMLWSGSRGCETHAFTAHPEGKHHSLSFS
Chain of JAK2 (O60674 826-1132): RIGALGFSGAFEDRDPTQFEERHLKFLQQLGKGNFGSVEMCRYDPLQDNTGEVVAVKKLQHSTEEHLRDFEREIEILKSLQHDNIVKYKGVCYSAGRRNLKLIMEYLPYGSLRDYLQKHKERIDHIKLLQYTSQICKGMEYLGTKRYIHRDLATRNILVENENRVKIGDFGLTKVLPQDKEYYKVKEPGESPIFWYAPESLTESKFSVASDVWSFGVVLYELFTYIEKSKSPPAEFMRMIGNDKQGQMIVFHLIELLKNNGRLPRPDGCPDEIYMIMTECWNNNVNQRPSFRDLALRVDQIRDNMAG
Chain of JAK1 (P23458 850-1154): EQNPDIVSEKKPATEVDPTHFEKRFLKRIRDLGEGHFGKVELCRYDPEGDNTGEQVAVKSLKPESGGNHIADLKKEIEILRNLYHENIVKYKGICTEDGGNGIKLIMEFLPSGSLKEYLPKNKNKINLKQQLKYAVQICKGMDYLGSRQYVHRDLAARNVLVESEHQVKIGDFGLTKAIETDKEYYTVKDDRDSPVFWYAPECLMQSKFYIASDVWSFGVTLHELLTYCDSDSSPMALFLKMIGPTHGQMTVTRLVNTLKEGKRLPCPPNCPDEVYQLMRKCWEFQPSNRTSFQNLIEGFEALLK

Row | Structure (SMILES) | IC50 [1] | IC50 [2] | IC50 [3]
1 | C[C@H](Nc1nc(-c2cnn3ccccc23)nc(OCCO)c1F)c1ncc(F)cn1 [Example 12, 2-[(5-Fluoro-6-{[(1S)-1-(5-fluoropyrimidin-2-yl)ethyl]amino}-2-pyrazolo[1,5-a]pyridin-3-ylpyrimidin-4-yl)oxy]ethanol] | 4 nM | 4 nM | 0.5 nM
2 | O=C(CO)N1CCC[C@@H](Oc2nc(-c3cnn4ccccc34)nc(N3CCC(O)CC3)c2F)C1 [Example 75, 1-(5-Fluoro-6-{[(3R)-1-glycoloylpiperidin-3-yl]oxy}-2-pyrazolo[1,5-a]pyridin-3-ylpyrimidin-4-yl)piperidin-4-ol] | 29 nM | 26 nM | 4 nM
3 | COc1nc(-c2cnn3ccccc23)nc(N[C@@H]2CCCN(C(=O)CO)C2)c1F [Example 42, 2-{(3R)-3-[(5-Fluoro-6-methoxy-2-pyrazolo[1,5-a]pyridin-3-ylpyrimidin-4-yl)amino]piperidin-1-yl}-2-oxoethanol] | 13 nM | 1 nM | 1 nM
4 | N#CCC(=O)N1CCC[C@@H](Oc2nc(-c3cnn4ccccc34)nc(N3CCOCC3)c2F)C1 [Example 53, 3-{(3R)-3-[(5-fluoro-6-morpholin-4-yl-2-pyrazolo[1,5-a]pyridin-3-ylpyrimidin-4-yl)oxy]piperidin-1-yl}-3-oxopropanenitrile] | 2 nM | 3 nM | 0.5 nM
5 | Cc1cc(-c2cc(N[C@@H]3CCCN(C(=O)CC#N)C3)nc(-c3cnn4ccccc34)n2)cc(C)n1 [Example 102, 3-((3R)-3-{[6-(2,6-Dimethylpyridin-4-yl)-2-pyrazolo[1,5-a]pyridin-3-ylpyrimidin-4-yl]amino}piperidin-1-yl)-3-oxopropanenitrile] | 1 nM | 5 nM | 2 nM
6 | N#CC[C@H]1CC[C@H](Nc2nc(-c3cnn4ccccc34)nc(OC[C@@H](O)CO)c2F)CC1 [Example 6, {Trans-4-[(6-{[(2S)-2,3-dihydroxypropyl]oxy}-5-fluoro-2-pyrazolo[1,5-a]pyridin-3-ylpyrimidin-4-yl)amino]cyclohexyl}acetonitrile] | 15 nM | 3 nM | 0.7 nM
7 | CN1CCN(c2nc(-c3cnn4ccccc34)nc(O[C@@H]3CCCN(C(=O)CO)C3)c2F)CC1 [Example 67, 2-((3R)-3-{[5-Fluoro-6-(4-methylpiperazin-1-yl)-2-pyrazolo[1,5-a]pyridin-3-ylpyrimidin-4-yl]oxy}piperidin-1-yl)-2-oxoethanol] | 139 nM | 23 nM | 5 nM
8 | COCCOc1cc(N[C@@H]2CCCN(C(=O)CC#N)C2)nc(-c2cnn3ccccc23)n1 [Example 97, 3-((3R)-3-{[6-(2-Methoxyethoxy)-2-pyrazolo[1,5-a]pyridin-3-ylpyrimidin-4-yl]amino}piperidin-1-yl)-3-oxopropanenitrile] | 2 nM | 1 nM | 1 nM
9 | N#Cc1nc(-c2cnn3ccccc23)nc(N[C@@H]2CCCN(C(=O)CO)C2)c1F [Example 47, 5-Fluoro-6-{[(3R)-1-glycoloylpiperidin-3-yl]amino}-2-pyrazolo[1,5-a]pyridin-3-ylpyrimidine-4-carbonitrile] | 10 nM | 12 nM | 4 nM
10 | N#CCC(=O)N1CCC[C@@H](Oc2nc(-c3cnn4ccccc34)nc(NCCO)c2F)C1 [Example 70, 3-[(3R)-3-({5-Fluoro-6-[(2-hydroxyethyl)amino]-2-pyrazolo[1,5-a]pyridin-3-ylpyrimidin-4-yl}oxy)piperidin-1-yl]-3-oxopropanenitrile] | 28 nM | 8 nM | 3 nM
11 | COc1cc(-c2cc(N[C@@H]3CCCN(C(=O)CO)C3)nc(-c3cnn4ccccc34)n2)ccn1 [Example 98, 2-((3R)-3-{[6-(2-Methoxypyridin-4-yl)-2-pyrazolo[1,5-a]pyridin-3-ylpyrimidin-4-yl]amino}piperidin-1-yl)-2-oxoethanol] | 3 nM | 5 nM | 
12 | CCOCCOc1nc(-c2cnn3ccccc23)nc(N[C@@H]2CCCN(C(=O)CO)C2)c1F [Example 83, 2-((3R)-3-{[6-(2-Ethoxyethoxy)-5-fluoro-2-pyrazolo[1,5-a]pyridin-3-ylpyrimidin-4-yl]amino}piperidin-1-yl)-2-oxoethanol] | 32 nM | 4 nM | 
13 | CC(C)Oc1nc(-c2cnn3ccccc23)nc(N[C@@H]2CCCN(C(=O)CO)C2)c1F [Example 51, 2-{(3R)-3-[(5-Fluoro-6-isopropoxy-2-pyrazolo[1,5-a]pyridin-3-ylpyrimidin-4-yl)amino]piperidin-1-yl}-2-oxoethanol] | 36 nM | 3 nM | 2 nM
14 | CN(C)CCOc1nc(-c2cnn3ccccc23)nc(N[C@H]2CC[C@H](CC#N)CC2)c1F [Example 9, [trans-4-({6-[2-(dimethylamino)ethoxy]-5-fluoro-2-pyrazolo[1,5-a]pyridin-3-ylpyrimidin-4-yl}amino)cyclohexyl]acetonitrile] | 85 nM | 3 nM | 0.7 nM
15 | O=C(CO)N1CCC[C@@H](Nc2nc(-c3cnn4ccccc34)nc(OCC(F)(F)F)c2F)C1 [Example 49, 2-((3R)-3-{[5-Fluoro-2-pyrazolo[1,5-a]pyridin-3-yl-6-(2,2,2-trifluoroethoxy)pyrimidin-4-yl]amino}piperidin-1-yl)-2-oxoethanol] | 35 nM | 14 nM | 10 nM
16 | Cc1ccc(-c2cc(N[C@@H]3CCCN(C(=O)CC#N)C3)nc(-c3cnn4ccccc34)n2)cn1 [Example 100, 3-((3R)-3-{[6-(6-Methylpyridin-3-yl)-2-pyrazolo[1,5-a]pyridin-3-ylpyrimidin-4-yl]amino}piperidin-1-yl)-3-oxopropanenitrile] | 0.5 nM | 2 nM | 2 nM
17 | COc1nc(-c2cnn3ccccc23)nc(N[C@@H]2CCCN(c3cnc(C#N)cn3)C2)c1F [Example 56, 5-{(3R)-3-[(5-fluoro-6-methoxy-2-pyrazolo[1,5-a]pyridin-3-ylpyrimidin-4-yl)amino]piperidin-1-yl}pyrazine-2-carbonitrile] | 43 nM | 8 nM | 7 nM
18 | C[C@H](Nc1nc(-c2cnn3ccccc23)nc(OC[C@@H](O)CO)c1F)c1ncc(F)cn1 [Example 13, (2S)-3-[(5-fluoro-6-{[(1S)-1-(5-fluoropyrimidin-2-yl)ethyl]amino}-2-pyrazolo[1,5-a]pyridin-3-ylpyrimidin-4-yl)oxy]propane-1,2-diol] | 4 nM | 4 nM | 1 nM
19 | CCCCOc1nc(-c2cnn3ccccc23)nc(N[C@@H]2CCCN(C(=O)CC#N)C2)c1F [Example 15, 3-{(3R)-3-[(6-butoxy-5-fluoro-2-pyrazolo[1,5-a]pyridin-3-ylpyrimidin-4-yl)amino]piperidin-1-yl}-3-oxopropanenitrile] | 13 nM | 2 nM | 1 nM
20 | O=C(CO)N1CCC[C@@H](Nc2nc(-c3cnn4ccccc34)nc(-c3ccc(CO)nc3)c2F)C1 [Example 84, 2-[(3R)-3-({5-Fluoro-6-[6-(hydroxymethyl)pyridin-3-yl]-2-pyrazolo[1,5-a]pyridin-3-ylpyrimidin-4-yl}amino)piperidin-1-yl]-2-oxoethanol] | 2 nM | 5 nM | 
21 | N#Cc1cnc(N2CCC[C@@H](Nc3nc(-c4cnn5ccccc45)nc(OCCO)c3F)C2)cn1 [Example 54, 5-((3R)-3-{[5-fluoro-6-(2-hydroxyethoxy)-2-pyrazolo[1,5-a]pyridin-3-ylpyrimidin-4-yl]amino}piperidin-1-yl)pyrazine-2-carbonitrile] | 7 nM |  | 
22 | O=C(O)c1ccc(-c2nc(-c3cnn4ccccc34)nc(N[C@@H]3CCCN(C(=O)CO)C3)c2F)cn1 [Example 79, 5-(5-Fluoro-6-{[(3R)-1-glycoloylpiperidin-3-yl]amino}-2-pyrazolo[1,5-a]pyridin-3-ylpyrimidin-4-yl)pyridine-2-carboxylic acid] | 2 nM | 6 nM | 
23 | NC(=O)c1nc(-c2cnn3ccccc23)nc(N[C@@H]2CCCN(C(=O)CO)C2)c1F [Example 48, 5-Fluoro-6-{[(3R)-1-glycoloylpiperidin-3-yl]amino}-2-pyrazolo[1,5-a]pyridin-3-ylpyrimidine-4-carboxamide] | 13 nM | 5 nM | 
24 | N#CC[C@H]1CC[C@H](Nc2nc(-c3cnn4ccccc34)nc(NCCO)c2F)CC1 [Example 8, [Trans-4-({5-fluoro-6-[(2-hydroxyethyl)amino]-2-pyrazolo[1,5-a]pyridin-3-ylpyrimidin-4-yl}amino)cyclohexyl]acetonitrile] | 16 nM | 10 nM | 
25 | N#CCC(=O)N1CCC[C@@H](Oc2nc(-c3cnn4ccccc34)nc(OCCO)c2F)C1 [Example 66, 3-((3R)-3-{[5-Fluoro-6-(2-hydroxyethoxy)-2-pyrazolo[1,5-a]pyridin-3-ylpyrimidin-4-yl]oxy}piperidin-1-yl)-3-oxopropanenitrile] | 10 nM | 4 nM | 
26 | COc1ccc(-c2nc(-c3cnn4ccccc34)nc(N[C@@H]3CCCN(C(=O)CO)C3)c2F)cn1 [Example 35, 2-((3R)-3-{[5-Fluoro-6-(6-methoxypyridin-3-yl)-2-pyrazolo[1,5-a]pyridin-3-ylpyrimidin-4-yl]amino}piperidin-1-yl)-2-oxoethanol] | 7 nM |  | 
